US8092838B2, “Use of hydrogen sulfide in the treatment of eye diseases” (The University of Houston System, priority 2005, dated 2012)
Read-outs that look alike come from different tables or passages of the source.

Assays:
isolated porcine iris = experiment: Relaxation of carbachol-induced tone in isolated porcine iris muscle strips; format: cell-based
[1] = system: isolated porcine iris-ciliary body; experiment: Norepinephrine concentration in isolated porcine iris-ciliary body (HPLC); format: cell-based; conditions: NaHS 30-300 μM
Text: The data support results obtained from neurotransmitter release studies which show a decrease in norepinephrine output.
To determine the mechanism of action of H2S donors on sympathetic neurotransmitter pools in the anterior uvea, the direct effect of NaHS was studied on catecholamine (norepinephrine, epinephrine and dopamine) concentrations in porcine iris-ciliary bodies using […] Liquid Chromatography techniques. […] Data from this study supports the previous observation that H2S donors can reduce the release of [^3H]NE from isolated porcine irides. It appears that by reducing the availability of the neurotransmitter (norepinephrine), H2S can attenuate sympathetic neurotransmission in porcine anterior uvea.

[2] = system: normotensive, conscious albino rabbits; experiment: Intraocular pressure after topical application in normotensive, conscious albino rabbits (pneumatonometer)
Text: A 1% dose of NaHS was applied topically to one eye and the saline vehicle to the other eye.
The effect of a generator of H2S in biological tissues (NaHS) on intraocular pressure in normotensive, conscious albino rabbits was examined. In the eyes of a rabbit, the desired intraocular pressure is around 20 mm Hg. While in human, the desired intraocular pressure in the eye is in the range of from about 12 mm Hg to 15 mm Hg. Ranges of about 18 to 24 mm Hg in a human eye are generally considered elevated. Two baseline intraocular pressure measurements were made in nine rabbits using a pneumatonometer (Medtronic, Model 30 Classic, Jacksonville, Fla.) at −1, and 0 hour after topical application of proparacaine 0.5%. NaHS (1%, dissolved in sterile saline solution) was applied topically to one eye of each animal while the saline vehicle was administered to the other (control) eyes. Intraocular pressures were measured in both eyes at +0.5, +1, +3, and +6 hours after instillation of the drug and vehicle.

[3] = system: isolated porcine iris-ciliary bodies; format: cell-based; conditions: for effect on NaHS-induced inhibition of evoked [3H]NE release: modifier 1 mM, NaHS 1 μM

## COc1ccc(Cl)cc1C(=O)NCCc1ccc(S(=O)(=O)NC(=O)NC2CCCCC2)cc1 [glibenclamide]
Isolated porcine iris; glibenclamide 300 μM
  shift of concentration-response curves to NaHS: significant rightward shift

## S [NaHS, sodium hydrosulfide]
Isolated porcine iris; NaHS 30 nM-100 μM
  relaxation of tone induced by a submaximal concentration of carbachol: concentration-related relaxation
Isolated porcine iris; NaHS versus Na2S
  relative potency in eliciting relaxation of tone: more potent than Na2S
Isolated porcine iris; Sus scrofa, concentration range 30 nM to 300 μM
  IC50: 7 µM
[1]
  norepinephrine concentrations in the isolated porcine iris-ciliary body: concentration-dependent decrease
[2]; NaHS 1% in sterile saline, topical, one eye, measured +0.5, +1, +3, +6 hours
  effect on intraocular pressure in the treated eyes: time-dependent significant (p<0.001) reduction in intraocular pressure
[2]; NaHS 1% topical to the other eye
  intraocular pressure in contralateral eyes treated with only the saline vehicle: parallel (but smaller) decrease in intraocular pressure
[2]; NaHS 1% topical, experimental and control eyes, all times tested
  hyperemia and/or papillary changes: No hyperemia and/or papillary changes were observed
[2]; NaHS 1% topical, treated eyes
  time of maximum reduction in intraocular pressure: 3 h
[2]; NaHS 1% topical, treated eyes, 6 hours
  intraocular pressure after 6 hours: remained depressed
[3]; 1 μM applied 8 minutes before and during S2
  stimulation-evoked [3H]NE release: marked inhibition
[3]; NaHS 0.1-100 μM
  electrically-evoked [3H]NE overflow: concentration-dependent inhibition

## C[S+](CC[C@H](N)C(=O)O)C[C@H]1O[C@@H](n2cnc3c(N)ncnc32)[C@H](O)[C@@H]1O (stereo partly drawn) [SAM, S-adenosyl-L-methionine]
Isolated porcine iris
  effect on relaxations induced by the higher concentration of NaHS: attenuated
  shift of NaHS concentration-response curve: significant leftward shift

## N#CC[C@H](N)C(=O)O [BCA, β-cyano-L-alanine]
Isolated porcine iris; modifier 1 mM
  shift of concentration-response curves to NaHS: shifted concentration-response curves to NaHS to the right

## C#CCC(N)C(=O)O (stereo not shown) [PAG, propargylglycine, reference compound]
Isolated porcine iris; modifier 1 mM
  shift of concentration-response curves to NaHS: shifted concentration-response curves to NaHS to the right
[3]
  effect on NaHS-induced inhibition of evoked [3H]NE release: blocked the inhibitory response elicited by NaHS

## sodium sulfide [Na2S]
Isolated porcine iris
  IC50: 70 µM
[3]
  basal tritium efflux: without affecting basal tritium efflux
  electrically-evoked [3H]NE release: concentration-dependent inhibition

## NOCC(=O)O [AOA, aminooxyacetic acid, reference compound]
Isolated porcine iris; AOA 30 μM
  shift of concentration-response curves to NaHS: significant (P<0.001) rightward shifts
[3]
  effect on NaHS-induced inhibition of evoked [3H]NE release: blocked the inhibitory response elicited by NaHS
